Structures are written as SMILES.

This note sets out measurements from patent US8951999B2, “Compounds” (Orexo AB, priority 2009, dated 2015).

This assay concerns the target T1, recombinant human mPGES-1 (Homo sapiens, UniProt O14684).
T1 sequence (O14684 1-152): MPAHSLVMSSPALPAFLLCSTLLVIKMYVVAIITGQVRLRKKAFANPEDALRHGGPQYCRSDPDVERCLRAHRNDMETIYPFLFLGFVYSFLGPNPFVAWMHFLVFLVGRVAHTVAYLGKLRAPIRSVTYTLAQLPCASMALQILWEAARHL
Nature of the assay: Assay A: mPGES-1 enzyme assay (HTRF detection of PGE2). It counts as biochemical. The settings on record: biological assay A (compounds 1-41, 54, 55, 62, 73); PGE2 formation from PGH2, HTRF; read-out: mPGES-1 inhibitory effect IC50. The source says:
Assay A: mPGES-1 Enzyme Assay
The basis of the assay used is to measure the inhibition of microsomal prostaglandin E2 synthase-1 (mPGES-1) dependent prostaglandin (PG) E2 formation from PGH2 by different compounds. Thus, the formation of PGE2 is used as signal and a lowering of this signal can be interpreted as inhibition of mPGES-1. Similar assays to measure inhibition of mPGES-1 have previously been described in the literature.
• Glutathione (Sigma, G-4251) • Freeze culture in Rosetta E coli expression strain. • LB growth media with Ampillicillin (Amp) final concentration in culture 50 μg/mL • Chloroamphenicol stock 34 mg/mL (chloro) final concentration in culture 34 μg/mL • Sterile growth flasks for 500 mL-1 liter cultures • 0.1 M KPi buffer pH 7.4 • 9.25% HCl • PGH2 (0.25 mM) • Fe (II) Cl2 tetrahydrate, 99% (Sigma, 220229) • 384-well plate with compounds • 96-well plate, polypropylene (Thermo fast 96 skirted VWR) • 384-well plate polypropylene PCR plate (Greiner 785201) • Greiner 384-well plate pp (In vitro cat. no. 781280) • Adhesive sealing film for 96-well plates (Sigma-Aldrich) • Aluminium foil (PCR foil, 310-0030-127-471 from Labora) • PBS (GIBCO 14040) • Prostaglandin E2 Assay (Cisbio, cat. no. 62P2APEC) • Biomek FX robot (Beckman Coulter) • Biomek NX robot (Beckman Coulter) • Multidrop; micro or combi (ThermoLabsystems) • Plate reader: Safire2 (Tecan)
Microsomes from Rosetta E. coli bacteria expressing recombinant human mPGES-1 can be derived as described below:
Inoculate 5 mL LB with Amp and Chloro with bacteria from freeze culture. Incubate over night at 37° C. with 200 rpm. Thereafter, inoculate 500-800 mL LB containing Amp and Chloro with the 5 mL on culture and grow to OD640 of 0.6-0.8. Chill the culture to +4° C. before induction. Induce the culture with IPTG at a final concentration of 400 μM. Express the protein at room temp 18-23° C. with 200 rpm shaking over night.
The following steps can be performed on the following day: • 1. Spin down the cells in 250 mL centrifuge flasks for 15 min at 7000 rpm • 2. Dissolve the pellet from 250 mL culture in 12.5 mL homogenization buffer • 3. Disintegrate the cells by sonication, 4×10 seconds at 35% amplitude • 4. Add 2.5 mL MgCl2 (100 mM) and DNase 12.5 μL (0.8 mg/mL) and incubate on ice for 30 min • 5. Spin down the bacteria debris and save the supernatant, 7000 rpm for 15 min • 6. Isolate the protein containing membranes in the supernatant by ultracentrifugation 45000×g for 1 hour. • 7. Discard the supernatant and dissolve the pellet in 20 mM KPi buffer and aliquot the enzyme and store aliquots at −80° C.
Before each experiment is performed an aliquot of the enzyme is thawed and it can then be dissolved in 0.1 M KPi pH 7.4 buffer containing 2.5 mM GSH. 50 μL of this enzyme solution is subsequently dispensed in a 384-well plate at room temperature. 0.5 μL of the inhibitor dissolved in DMSO is thereafter added to each well and incubated for 25 minutes at room temperature. Subsequently, 2 μL of PGH2 dissolved in an appropriate solvent is added to each well and after one minute at room temperature, the acidified stop solution containing FeCl2 is added. 4 μL of the total volume is transferred to a separate plate and diluted 750-fold in two separate steps before quantification of PGE2.
In order to quantitate the amount of PGE2 that has been formed, a homogenous time resolved fluorescent (HTRF) detection of PGE2 can be performed by the use of a commercially available kit from CisBio essentially according to the manufacturer's protocol. […]
On the technique in general: Time-resolved FRET reads energy transfer from a long-lived donor to a nearby acceptor.
For orientation: IC50 means the concentration at which inhibition is half-maximal. `CC(C)(C)C(=O)NCc1ccc(Cl)c(C(=O)Nc2cnc(OCC(F)F)c(C(=O)Nc3ccc(Br)cc3)c2)c1` [Example 6, N-[2-(2,2-Difluoroethyl)oxy-3-(4-bromophenyl)aminocarbonyl-pyridin-5-yl]-2-chloro-5-(tert-butylcarbonylamino)methyl-benzamide]: the IC50 was 2 nM.

As to `CC(C)(C)C(=O)NCc1ccc(Cl)c(C(=O)Nc2ccc(F)c(C(=O)Nc3ccc(Br)cc3)c2)c1` [Example 2, N-[4-Fluoro-3-(4-bromophenyl)aminocarbonyl-phenyl]-2-chloro-5-(tert-butylcarbonylamino)methyl-benzamide], the IC50 was 4 nM.

For `COc1ccc(NC(=O)c2cc(CNC(=O)C3(C(F)(F)F)CC3)ccc2Cl)cc1C(=O)Nc1ccc(Br)cc1` [Example 31], the IC50 came to 2 nM.

For the molecule `CC(C)(C)C(=O)NCc1ccc(Cl)c(C(=O)Nc2ccc(OCC(F)F)c(C(=O)NCC#Cc3ccccc3)c2)c1` [Example 40], the IC50 amounted to 5 nM.
